These are literature values, as cited in PubChem BioAssay AID1259410 (Chemical Carcinogenesis Research Information System (CCRIS), 2018).

The structures appear in SMILES notation.

For the series, the system named is rodent tumor promotion studies, tumor incidence. Kind of series: CCRIS tumor promotion studies.

Regarding `O=C1O[C@H]([C@@H](O)CO)C(O)=C1O`, the outcome reads like this: (Carcinogen: 1,2-DIMETHYLHYDRAZINE, 540-73-8, Doses [Carcinogen]: 20 MG/KG 1/WK FOR 4 WK, Doses [Promoter]: 0, 5% IN DIET FOR 36 WK (STUDY DURATION: 40 WK), Route [Carcinogen]: SUBCUTANEOUS, Route [Promoter]: ORAL, Species: RAT, Strain/Sex: F344/MALE) “colon: tumor”; (Carcinogen: BUTYLATED HYDROXYANISOLE, 25013-16-5, Doses [Carcinogen]: 2% IN DIET FOR 1 YR, Doses [Promoter]: 0, 2% IN DIET CONCOMITANTLY WITH CARCINOGEN FOR 1 YR (STUDY DURATION: 1 YR), Route [Carcinogen]: ORAL, Route [Promoter]: ORAL, Species: RAT, Strain/Sex: F344/MALE) “forestomach: squamous cell carcinoma”; (Carcinogen: METHYLNITROSOUREA, 684-93-5, Doses [Carcinogen]: 20 MG/KG 2/WK FOR 4 WK, Doses [Promoter]: 0, 5% IN DIET BEGINNING POST CARCINOGEN TREATMENT AND CONTINUING FOR 32 WK (STUDY DURATION: 36 WK), Route [Carcinogen]: INTRAPERITONEAL, Route [Promoter]: ORAL, Species: RAT, Strain/Sex: F344/MALE) “urinary bladder: papilloma; forestomach: carcinoma”; (Carcinogen: N-BUTYL-N-4(HYDROXYBUTYL)NITROSAMINE, 3817-11-6, Doses [Carcinogen]: 0.05% IN DRINKING WATER FOR 2 WK, Doses [Promoter]: 0, 5% IN DIET STARTING POST CARCINOGEN AND CONTINUING FOR 22 WK, LEFT URETER LIGATED 8 D POST CARCINOGEN (STUDY DURATION, Route [Carcinogen]: ORAL, Route [Promoter]: ORAL, Species: RAT, Strain/Sex: F344/MALE) “bladder: papilloma”; (Carcinogen: N-BUTYL-N-(4-HYDROXYBUTYL)-NITROSAMINE, 3817-11-6, Doses [Carcinogen]: 0.05% IN DRINKING WATER FOR 4 WK, Doses [Promoter]: 0, 5% IN DIET FOR 32 WK BEGINNING POST CARCINOGEN TREATMENT (STUDY DURATION: 36 WK), Route [Carcinogen]: ORAL, Route [Promoter]: ORAL, Species: RAT, Strain/Sex: F344/MALE) “urinary bladder: papilloma, carcinoma”; (Carcinogen: N-BUTYL-N-(4-HYDROXYBUTYL)-NITROSAMINE, 3817-11-6, Doses [Carcinogen]: 0.05% IN DRINKING WATER FOR 4 WK, Doses [Promoter]: 0, 5% IN DIET FOR 32 WK BEGINNING POST CARCINOGEN TREATMENT (STUDY DURATION: 36 WK), Route [Carcinogen]: ORAL, Route [Promoter]: ORAL, Species: RAT, Strain/Sex: LEW/MALE) “urinary bladder: papilloma, carcinoma”. Besides, the outcome runs as follows: (Carcinogen: N-BUTYL-N-(4-HYDROXYBUTYL)NITROSAMINE [3817-11-6], Doses [Carcinogen]: 0.05% IN DRINKING WATER FOR 4 WK (STUDY DURATION: 40 WK), Doses [Promoter]: 2.5% IN DIET FOR 18 WK BEGINNING IMMEDIATELY POST LAST CARCINOGEN DOSE (STUDY DURATION: 40 WK), Route [Carcinogen]: ORAL, Route [Promoter]: ORAL, Species: RAT, Strain/Sex: F344/MALE) “urinary bladder: tumor”; (Carcinogen: N-BUTYL-N-(4-HYDROXYBUTYL)NITROSAMINE, 3817-11-6, Doses [Carcinogen]: 0.05% IN DRINKING WATER FOR 2 WK, Doses [Promoter]: 0, 5% IN DIET FOR 32 WK BEGINNING POST CARCINOGEN TREATMENT (STUDY DURATION: 34 WK), Route [Carcinogen]: ORAL, Route [Promoter]: ORAL, Species: RAT, Strain/Sex: F344/MALE) “urinary bladder: papilloma, carcinoma”; (Carcinogen: N-BUTYL-N-(4-HYDROXYBUTYL)NITROSAMINE, 3817-11-6, Doses [Carcinogen]: 0.05% IN DRINKING WATER FOR 4 WK, Doses [Promoter]: 0, 5% IN BASAL DIET CONTAINING 1.5% SODIUM BICARBONATE FOR 32 WK (STUDY DURATION: 36 WK), Route [Carcinogen]: ORAL, Route [Promoter]: ORAL, Species: RAT, Strain/Sex: F344/MALE) “urinary bladder: carcinoma”; (Carcinogen: N-BUTYL-N-(4-HYDROXYBUTYL)NITROSAMINE, 3817-11-6, Doses [Carcinogen]: 0.05% IN DRINKING WATER FOR 4 WK, Doses [Promoter]: 0, 5% IN DIET FOR 32 WK (STUDY DURATION: 36 WK), Route [Carcinogen]: ORAL, Route [Promoter]: ORAL, Species: RAT, Strain/Sex: F344/MALE) “urinary bladder: papilloma, carcinoma”; (Carcinogen: N-BUTYL-N-(4-HYDROXYBUTYL)NITROSAMINE, 3817-11-6, Doses [Carcinogen]: 0.05% IN DRINKING WATER FOR 4 WK, Doses [Promoter]: 0, 5% IN DIET FOR 32 WK BEGINNING POST CARCINOGEN TREATMENT (STUDY DURATION: 36 WK), Route [Carcinogen]: ORAL, Route [Promoter]: ORAL, Species: RATS, Strain/Sex: F344/SHI/MALE) “bladder: papilloma, carcinoma”; (Carcinogen: N-BUTYL-N-(4-HYDROXYBUTYL)NITROSAMINE, 3817-11-6, Doses [Carcinogen]: 0.05% IN DRINKING WATER FOR 4 WK, Doses [Promoter]: 0, 5% IN DIET FOR 32 WK POST CARCINOGEN DOSE (STUDY DURATION: 36 WK), Route [Carcinogen]: ORAL, Route [Promoter]: ORAL, Species: RAT, Strain/Sex: F344/MALE) “bladder: carcinoma or papilloma”. In addition, the outcome (Carcinogen: N-METHYL-N-NITROSOUREA, 684-93-5, Doses [Carcinogen]: 20 MG/KG 2/WK FOR 4 WK, Doses [Promoter]: 0, 5% IN DIET FOR 32 WK (STUDY DURATION: 32 WK), Route [Carcinogen]: INTRAPERITONEAL, Route [Promoter]: ORAL, Species: RAT, Strain/Sex: F344/MALE) was “forestomach: papilloma, carcinoma; urinary bladder: papilloma, carcinoma”; the outcome (Carcinogen: N-[4-(5-NITRO-2-FURYL)-2-THIAZOLYL]FORMAMIDE, 24554-26-5, Doses [Carcinogen]: 0.2% IN DIET FOR 6 WK, Doses [Promoter]: 0, 5% IN PROLAB DIET FOR 72 WK BEGINNING POST CARCINOGEN TREATMENT (STUDY DURATION: 78 WK), Route [Carcinogen]: ORAL, Route [Promoter]: ORAL, Species: RAT, Strain/Sex: F344/MALE) is “urinary bladder: carcinoma, carcinoma or papilloma”; the outcome (Carcinogen: N-bis(2-hydroxypropyl)nitrosamine (DHPN) (53609-64-6), Doses [Carcinogen]: 0.1% (w/v) in drinking water for 3 wk, then surgery for acid reflux esophagitis, study duration 34 wk, Doses [Promoter]: 0 (basal diet), 1% ascorbic acid, 1% ascorbic acid with 0.2% sodium nitrite, study duration 32 wk after first promoter d, Doses [Promoter]: 0 (basal diet), 1% ascorbic acid, 1% ascorbic acid with 0.2% sodium nitrite, study duration 32 wk after first promoter d, Route [Carcinogen]: Oral, Route [Promoter]: Oral, Species: Rat, Strain/Sex: F344/Male (24/group)) is listed as “esophagus (p1-p4): papilloma; significant only for combined treatment in p4 segm”; the outcome (Carcinogen: N-methyl-N'-nitro-N-nitrosoguanidine (70-25-7), Doses [Carcinogen]: 0.01% in drinking water for 10 wk for initiation of glandular stomach tumors, 100 mg/kg intragastrically after 16 hr st, Doses [Promoter]: 0.1% or 1.0% in the diet from wk 11 to end of study in combination with 0.05%, 0.1%, or 0.2% sodium nitrite in drinki, Route [Carcinogen]: Oral and Intragastric, Route [Promoter]: Oral, Species: Rat, Strain/Sex: F344/Male (15/15)/(14/15)(15/15)(15/15)(15/15)(15/15)(14/15)) is recorded as “forestomach: squamous cell carcinoma, papilloma increased in incidence and/or se”.
With `C/C(=C\CO)CCC[C@H](C)CCC[C@H](C)CCCC(C)C`, the outcome (Carcinogen: 7,12-DIMETHYLBENZ[A]ANTHRACENE, 57-97-6, Doses [Carcinogen]: 100 UG ONCE, Doses [Promoter]: 0, 100 MG 2 D/WK FOR 16 WK BEGINNING 1 WK POST CARCINOGEN DOSE (STUDY DURATION: 41 WK), Route [Carcinogen]: DERMAL, Route [Promoter]: DERMAL, Species: MOUSE, Strain/Sex: ICR/FEMALE) is recorded as “skin: tumor”.
Regarding `O=C(OOC(=O)c1ccccc1)c1ccccc1`, the outcome (Carcinogen: 7,12-DIMETHYLBENZ(A)ANTHRACENE, Doses [Carcinogen]: TOP, Route [Carcinogen]: DERMAL, Route [Promoter]: DERMAL, Species: MOUSE, Strain/Sex: FEMALE) is “integumentary system (skin)”; the outcome (Carcinogen: 7,12-DIMETHYLBENZ[A]ANTHRACENE, 57-97-6, Doses [Carcinogen]: 0.1% IN MINERAL OIL APPLIED TO BUCCAL POUCHES 3/WK FOR 10 WK, Doses [Promoter]: 0, 40% IN ACETONE APPLIED TO BUCCAL POUCHES 3/WK FOR 6 WK BEGINNING 6 WK POST CARCINOGEN TREATMENT (STUDY DURATION: 25 W, Route [Carcinogen]: DERMAL, Route [Promoter]: DERMAL, Species: HAMSTER, Strain/Sex: SYRIAN/MALE, FEMALE) is on record as “buccal pouch: tumor, carcinoma”; the outcome (Carcinogen: 7,12-DIMETHYLBENZ[A]ANTHRACENE, 57-97-6, Doses [Carcinogen]: 20 NMOL IN ACETONE ONCE, Doses [Promoter]: 0, 0.2 ML OF 100 MG/ML SOLUTION IN ACETONE 2/WK FOR 51 WK (STUDY DURATION: 52 WK), Route [Carcinogen]: DERMAL, Route [Promoter]: DERMAL, Species: MOUSE, Strain/Sex: SENCAR/FEMALE) is given as “skin: squamous cell carcinoma”; the outcome (Carcinogen: N-METHYL-N'-NITRO-N-NITROSOGUANIDINE, 70-25-7, Doses [Carcinogen]: 4 UMOL IN 200 µL ACETONE ONCE, Doses [Promoter]: 0, 10, 20 MG IN 200 µL ACETONE 2/WK FOR 52 WK BEGINNING 2 WK POST CARCINOGEN DOSE (STUDY DURATION: 52 WK), Doses [Promoter]: 0, 10, 20 MG IN 200 µL ACETONE 2/WK FOR 52 WK BEGINNING 2 WK POST CARCINOGEN DOSE (STUDY DURATION: 52 WK), Route [Carcinogen]: DERMAL, Route [Promoter]: DERMAL, Species: MOUSE, Strain/Sex: C3H/FEMALE) is listed as “skin: tumor”.
For the compound `Cc1cc(=O)n(-c2ccccc2)n1C`, the outcome (Carcinogen: DIHYDROXY-DI-N-PROPYLNITROSAMINE, 53609-64-6, URACIL, 66-22-8, Carcinogen: DIHYDROXY-DI-N-PROPYLNITROSAMINE, 53609-64-6, URACIL, 66-22-8, Doses [Carcinogen]: 1% DHPN IN DRINKING WATER AND 3% URACIL IN DIET FOR 4 WK, Doses [Promoter]: 0, 1% IN DIET BEGINNING 1 WK POST CARCINOGEN TREATMENT AND CONTINUING FOR 35 WK (STUDY DURATION: 40 WK), Route [Carcinogen]: ORAL, ORAL, Route [Promoter]: ORAL, Species: RAT, Strain/Sex: F344/MALE) was “kidney: adenoma or adenocarcinoma”.
